In the CheMixHub ionic liquid set:

Experiment: xn = mol fraction of the nth substance listed

CCCCCCCC[N+]1(C)CCCC1.O=S(=O)([N-]S(=O)(=O)C(F)(F)F)C(F)(F)F + CCCCOC(C)=O
298.15 K, 100 kPa
Settings | electrical conductivity [S/m] | viscosity [mPa·s]
x2 = 0.2414 | 0.145 | –
x2 = 0.2589 | – | 51.3
x2 = 0.6824 | 0.353 | –
x2 = 0.7923 | 0.355 | –
x2 = 0.8427 | 0.326 | –

O=S(=O)([N-]S(=O)(=O)C(F)(F)F)C(F)(F)F.[Li+] + CC[n+]1ccn(C)c1.O=S(=O)([O-])C(F)(F)F + O
Settings | electrical conductivity [S/m] | viscosity [mPa·s]
283 K, 101 kPa, x1 = 0.2649, x2 = 0.2649 | 0.36 | 96.6
283 K, 101 kPa, x1 = 0.4189, x2 = 0.2649 | 0.056 | –
283 K, 101 kPa, x1 = 0.5195, x2 = 0.3509 | 0.014 | –
293 K, 101 kPa, x1 = 0.2649, x2 = 0.2649 | 0.54 | 60.2
293 K, 101 kPa, x1 = 0.4189, x2 = 0.2649 | 0.1 | 410
293 K, 101 kPa, x1 = 0.5195, x2 = 0.3509 | 0.03 | –
293.15 K, 100 kPa, x1 = 0.2745, x2 = 0.3509 | – | 69.3
293.15 K, 100 kPa, x1 = 0.3106, x2 = 0.3509 | – | 87
293.15 K, 100 kPa, x1 = 0.3509, x2 = 0.3509 | – | 129
293.15 K, 100 kPa, x1 = 0.3868, x2 = 0.3509 | – | 190
293.15 K, 100 kPa, x1 = 0.4189, x2 = 0.3509 | – | 292
293.15 K, 100 kPa, x1 = 0.4478, x2 = 0.3509 | – | 428
293.15 K, 100 kPa, x1 = 0.474, x2 = 0.3509 | – | 611
293.15 K, 100 kPa, x1 = 0.4978, x2 = 0.3509 | – | 880
293.15 K, 100 kPa, x1 = 0.5195, x2 = 0.3509 | – | 1587
298.1 K, 101 kPa, x1 = 0.2649, x2 = 0.2649 | 0.65 | 48.9
298.1 K, 101 kPa, x1 = 0.4189, x2 = 0.2649 | 0.14 | 302
298.1 K, 101 kPa, x1 = 0.5195, x2 = 0.3509 | 0.042 | 1125
298.15 K, 100 kPa, x1 = 0.2745, x2 = 0.3509 | – | 55
298.15 K, 100 kPa, x1 = 0.3106, x2 = 0.3509 | – | 73.5
298.15 K, 100 kPa, x1 = 0.3509, x2 = 0.3509 | – | 102
298.15 K, 100 kPa, x1 = 0.3868, x2 = 0.3509 | – | 147
298.15 K, 100 kPa, x1 = 0.4189, x2 = 0.3509 | – | 219
298.15 K, 100 kPa, x1 = 0.4478, x2 = 0.3509 | – | 316
298.15 K, 100 kPa, x1 = 0.474, x2 = 0.3509 | – | 439
298.15 K, 100 kPa, x1 = 0.4978, x2 = 0.3509 | – | 618
298.15 K, 100 kPa, x1 = 0.5195, x2 = 0.3509 | – | 1082
303 K, 101 kPa, x1 = 0.2649, x2 = 0.2649 | 0.77 | 40.2
303 K, 101 kPa, x1 = 0.4189, x2 = 0.2649 | 0.17 | 227
303 K, 101 kPa, x1 = 0.5195, x2 = 0.3509 | 0.057 | 789
303.15 K, 100 kPa, x1 = 0.2745, x2 = 0.3509 | – | 44.4
303.15 K, 100 kPa, x1 = 0.3106, x2 = 0.3509 | – | 59.3
303.15 K, 100 kPa, x1 = 0.3509, x2 = 0.3509 | – | 81.4
303.15 K, 100 kPa, x1 = 0.3868, x2 = 0.3509 | – | 115
303.15 K, 100 kPa, x1 = 0.4189, x2 = 0.3509 | – | 166
303.15 K, 100 kPa, x1 = 0.4478, x2 = 0.3509 | – | 238
303.15 K, 100 kPa, x1 = 0.474, x2 = 0.3509 | – | 326
303.15 K, 100 kPa, x1 = 0.4978, x2 = 0.3509 | – | 452
303.15 K, 100 kPa, x1 = 0.5195, x2 = 0.3509 | – | 770
313 K, 101 kPa, x1 = 0.2649, x2 = 0.2649 | 1.05 | 28
313 K, 101 kPa, x1 = 0.4189, x2 = 0.2649 | 0.27 | 138
313 K, 101 kPa, x1 = 0.5195, x2 = 0.3509 | 0.1 | 418
313.15 K, 100 kPa, x1 = 0.2745, x2 = 0.3509 | – | 30.6
313.15 K, 100 kPa, x1 = 0.3106, x2 = 0.3509 | – | 40.1
313.15 K, 100 kPa, x1 = 0.3509, x2 = 0.3509 | – | 54.2
313.15 K, 100 kPa, x1 = 0.3868, x2 = 0.3509 | – | 75.3
313.15 K, 100 kPa, x1 = 0.4189, x2 = 0.3509 | – | 104
313.15 K, 100 kPa, x1 = 0.4478, x2 = 0.3509 | – | 144
313.15 K, 100 kPa, x1 = 0.474, x2 = 0.3509 | – | 191
313.15 K, 100 kPa, x1 = 0.4978, x2 = 0.3509 | – | 255
313.15 K, 100 kPa, x1 = 0.5195, x2 = 0.3509 | – | 413
323 K, 101 kPa, x1 = 0.2649, x2 = 0.2649 | 1.38 | 20.4
323 K, 101 kPa, x1 = 0.4189, x2 = 0.2649 | 0.4 | 87.4
323 K, 101 kPa, x1 = 0.5195, x2 = 0.3509 | 0.16 | 243
323.15 K, 100 kPa, x1 = 0.2745, x2 = 0.3509 | – | 22.1
323.15 K, 100 kPa, x1 = 0.3106, x2 = 0.3509 | – | 28.7
323.15 K, 100 kPa, x1 = 0.3509, x2 = 0.3509 | – | 37.6
323.15 K, 100 kPa, x1 = 0.3868, x2 = 0.3509 | – | 49.3
323.15 K, 100 kPa, x1 = 0.4189, x2 = 0.3509 | – | 63.9
323.15 K, 100 kPa, x1 = 0.4478, x2 = 0.3509 | – | 92.9
323.15 K, 100 kPa, x1 = 0.474, x2 = 0.3509 | – | 120
323.15 K, 100 kPa, x1 = 0.4978, x2 = 0.3509 | – | 155
323.15 K, 100 kPa, x1 = 0.5195, x2 = 0.3509 | – | 239
333 K, 101 kPa, x1 = 0.2649, x2 = 0.2649 | 1.76 | 15.3
333 K, 101 kPa, x1 = 0.4189, x2 = 0.2649 | 0.56 | 58
333 K, 101 kPa, x1 = 0.5195, x2 = 0.3509 | 0.24 | 149
333.15 K, 100 kPa, x1 = 0.2745, x2 = 0.3509 | – | 16.5
333.15 K, 100 kPa, x1 = 0.3106, x2 = 0.3509 | – | 21.2
333.15 K, 100 kPa, x1 = 0.3509, x2 = 0.3509 | – | 27.2
333.15 K, 100 kPa, x1 = 0.3868, x2 = 0.3509 | – | 34.1
333.15 K, 100 kPa, x1 = 0.4189, x2 = 0.3509 | – | 44
333.15 K, 100 kPa, x1 = 0.4478, x2 = 0.3509 | – | 56.7
333.15 K, 100 kPa, x1 = 0.474, x2 = 0.3509 | – | 80
333.15 K, 100 kPa, x1 = 0.4978, x2 = 0.3509 | – | 102
333.15 K, 100 kPa, x1 = 0.5195, x2 = 0.3509 | – | 150
343.15 K, 100 kPa, x1 = 0.2745, x2 = 0.3509 | – | 12.7
343.15 K, 100 kPa, x1 = 0.3106, x2 = 0.3509 | – | 16.1
343.15 K, 100 kPa, x1 = 0.3509, x2 = 0.3509 | – | 19.6
343.15 K, 100 kPa, x1 = 0.3868, x2 = 0.3509 | – | 25.1
343.15 K, 100 kPa, x1 = 0.4189, x2 = 0.3509 | – | 31.6
343.15 K, 100 kPa, x1 = 0.4478, x2 = 0.3509 | – | 39.9
343.15 K, 100 kPa, x1 = 0.474, x2 = 0.3509 | – | 51.1
343.15 K, 100 kPa, x1 = 0.4978, x2 = 0.3509 | – | 64.1
343.15 K, 100 kPa, x1 = 0.5195, x2 = 0.3509 | – | 91.5
353.15 K, 100 kPa, x1 = 0.2745, x2 = 0.3509 | – | 10
353.15 K, 100 kPa, x1 = 0.3106, x2 = 0.3509 | – | 12.6
353.15 K, 100 kPa, x1 = 0.3509, x2 = 0.3509 | – | 15.1
353.15 K, 100 kPa, x1 = 0.3868, x2 = 0.3509 | – | 19
353.15 K, 100 kPa, x1 = 0.4189, x2 = 0.3509 | – | 23.6
353.15 K, 100 kPa, x1 = 0.4478, x2 = 0.3509 | – | 29.2
353.15 K, 100 kPa, x1 = 0.474, x2 = 0.3509 | – | 36.7
353.15 K, 100 kPa, x1 = 0.4978, x2 = 0.3509 | – | 45.9
353.15 K, 100 kPa, x1 = 0.5195, x2 = 0.3509 | – | 58
363.15 K, 100 kPa, x1 = 0.2745, x2 = 0.3509 | – | 7.98
363.15 K, 100 kPa, x1 = 0.3106, x2 = 0.3509 | – | 10
363.15 K, 100 kPa, x1 = 0.3509, x2 = 0.3509 | – | 11.9
363.15 K, 100 kPa, x1 = 0.3868, x2 = 0.3509 | – | 14.8
363.15 K, 100 kPa, x1 = 0.4189, x2 = 0.3509 | – | 18.1
363.15 K, 100 kPa, x1 = 0.4478, x2 = 0.3509 | – | 22.1
363.15 K, 100 kPa, x1 = 0.474, x2 = 0.3509 | – | 27.3
363.15 K, 100 kPa, x1 = 0.4978, x2 = 0.3509 | – | 33.8
363.15 K, 100 kPa, x1 = 0.5195, x2 = 0.3509 | – | 41.6
